Experiment [1] concerns the target His-tagged KRAS G12D protein (Homo sapiens, UniProt P01116, G12D). Nature of the experiment: KRAS G12D TR-FRET Assay.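 Further: europium anti-His antibody paired with streptavidin-d2 as FRET partners, initial 30 min incubation, then peptide 1 h and detection reagents 1 h, all at room temperature.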 The experiment is classed as binding. As to conditions: biotinylated KRPep-2d substrate, 10 μM GDP.
For experiment [2], the system named is Phosphorylation of ERK1/2 in A-427 cells. Nature of the experiment: Phospho-ERK1/2 MSD Assay. The experiment is classed as cell-based. To be noted: Homo sapiens, A-427, 2 h, 2 h compound treatment, read-out: pERK (A427 cells) IC50. A digest of the protocol:
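ERK1/2 phosphorylation measured by Meso Scale whole-cell lysate assay after A-427 cells were exposed to a titration of compound for 2 h at 37 °C.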

In experiment [3] the target is GDP-bound KRAS protein (aa 1-169), containing both G12D and C118A amino acid substitutions (Homo sapiens, UniProt P01116, C118A/G12D). Nature of the experiment: KRAS G12D Coupled Nucleotide Exchange Assay.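 Further: IC50 obtained by fitting the AlphaScreen signal with a four-parameter logistic curve.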 The experiment is classed as biochemical. As to conditions: 2 h compound pre-incubation; SOS-mediated nucleotide exchange, cRAF AlphaScreen readout. In general terms: Bead proximity is the source of the signal in Alpha formats.

SMILES strings stand for the structures. Where only a bound is given, the exact number is not on record here.

Chain of GDP-bound KRAS protein (aa 1-169), containing both G12D and C118A amino acid substitutions (P01116 1-169 isoform P01116-2 G12D/C118A): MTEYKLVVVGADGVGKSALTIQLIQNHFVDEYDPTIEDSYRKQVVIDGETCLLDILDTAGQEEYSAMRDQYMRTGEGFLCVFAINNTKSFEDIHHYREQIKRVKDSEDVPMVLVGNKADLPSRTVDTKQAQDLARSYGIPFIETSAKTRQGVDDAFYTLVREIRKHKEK
Chain of His-tagged KRAS G12D protein (P01116 1-188 isoform P01116-2 G12D): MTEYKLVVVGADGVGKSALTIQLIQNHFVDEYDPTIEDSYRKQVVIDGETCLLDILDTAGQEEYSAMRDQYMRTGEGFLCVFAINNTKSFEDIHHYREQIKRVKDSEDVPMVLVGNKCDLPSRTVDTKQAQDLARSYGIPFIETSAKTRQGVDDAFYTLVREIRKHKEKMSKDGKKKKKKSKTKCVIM

Usually IC50 stands for the concentration that inhibits the measured activity by half. Turning to `Nc1nc2c(-c3c(Cl)cc4c(N5[C@@H]6CNC[C@H]5COC6)nc(OC[C@]56CCCN5C[C@H](F)C6)nc4c3F)ccc(F)c2s1` [Example 124, 4-(4-((1R,5S)-3-oxa-7,9-diazabicyclo[3.3.1]nonan-9-yl)-6-chloro-8-fluoro-2-(((2R,7aR)-2-fluorotetrahydro-1H-pyrrolizin-7a(5H)-yl)methoxy)quinazolin-7-yl)-7-fluorobenzo[d]thiazol-2-amine], the values for the IC50 in experiment [1] and in experiment [2] were 7 nM and 287 nM, respectively. For the same molecule, in experiment [3], the “Avg 2 h Coupled Exchange IC50” value stood at 6 nM.

`CN1C[C@H](F)C[C@H]1COc1nc(N2[C@@H]3CNC[C@H]2COC3)c2cc(Cl)c(-c3ccc(F)c4sc(N)nc34)c(F)c2n1` [Example 125, 4-(4-((1R,5S)-3-oxa-7,9-diazabicyclo[3.3.1]nonan-9-yl)-6-chloro-8-fluoro-2-(((2S,4R)-4-fluoro-1-methylpyrrolidin-2-yl)methoxy)quinazolin-7-yl)-7-fluorobenzo[d]thiazol-2-amine]: the IC50 in experiment [1] was 6 nM; in experiment [2], 369 nM. Besides, the “Avg 2 h Coupled Exchange IC50” value in experiment [3] came to 9 nM.

For the molecule `Nc1nc2c(-c3c(Cl)cc4c(N5[C@@H]6CNC[C@H]5COC6)nc(OCC56CCCN5CC(F)(F)C6)nc4c3F)ccc(F)c2s1` (stereo partly drawn) [Example 126, 4-(4-((1R,5S)-3-oxa-7,9-diazabicyclo[3.3.1]nonan-9-yl)-6-chloro-2-((2,2-difluorotetrahydro-1H-pyrrolizin-7a(5H)-yl)methoxy)-8-fluoroquinazolin-7-yl)-7-fluorobenzo[d]thiazol-2-amine], the figures for the half-inhibitory concentration (IC50) in experiment [1] and in experiment [2] were 12 nM and 896 nM, respectively. Besides, the “Avg 2 h Coupled Exchange IC50” value in experiment [3] turned out to be 10 nM.

As to `Nc1nc2c(-c3cc4nc(OC[C@@]56CCCN5C[C@H](F)C6)nc(N5C[C@H]6CC[C@@H](C5)N6)c4cc3F)ccc(F)c2s1` [Example 132, 4-(4-((1R,5S)-3,8-diazabicyclo[3.2.1]octan-3-yl)-6-fluoro-2-(((2R,7aS)-2-fluorotetrahydro-1H-pyrrolizin-7a(5H)-yl)methoxy)quinazolin-7-yl)-7-fluorobenzo[d]thiazol-2-amine], the IC50 in experiment [1] was 3 nM; in experiment [2], 440 nM. The “Avg 2 h Coupled Exchange IC50” value in experiment [3] is 4 nM.

In the case of `Nc1nc2c(-c3ccc4c(N5C[C@H]6CC[C@@H](C5)N6)nc(OC[C@@]56CCCN5C[C@H](F)C6)nc4c3)ccc(F)c2s1` [Example 133, 4-(4-((1R,5S)-3,8-diazabicyclo[3.2.1]octan-3-yl)-2-(((2R,7aS)-2-fluorotetrahydro-1H-pyrrolizin-7a(5H)-yl)methoxy)quinazolin-7-yl)-7-fluorobenzo[d]thiazol-2-amine], the IC50 in experiment [1] was 74 nM; in experiment [2] it was 4440 nM. Also, in experiment [3], the “Avg 2 h Coupled Exchange IC50” value worked out at 6 nM.

With `Nc1nc2c(-c3ccc4c(N5[C@@H]6CC[C@H]5CNC6)nc(OC[C@@]56CCCN5C[C@H](F)C6)nc4c3)ccc(F)c2s1` [Example 135, 4-(4-((1R,5S)-3,8-diazabicyclo[3.2.1]octan-8-yl)-2-(((2R,7aS)-2-fluorotetrahydro-1H-pyrrolizin-7a(5H)-yl)methoxy)quinazolin-7-yl)-7-fluorobenzo[d]thiazol-2-amine], the values for the IC50 in experiment [1] and in experiment [2] were 207 nM and greater than 10000 nM, respectively. Moreover, in experiment [3], the “Avg 2 h Coupled Exchange IC50” value came out at 64 nM.

For the molecule `Nc1nc2c(-c3c(Cl)cc4c(N5C[C@H]6CC[C@@H](C5)N6)nc(OC[C@]56CCCN5C[C@H](F)C6)nc4c3F)ccc(F)c2s1` [Example 136, 4-(4-((1R,5S)-3,8-diazabicyclo[3.2.1]octan-3-yl)-6-chloro-8-fluoro-2-(((2R,7aR)-2-fluorotetrahydro-1H-pyrrolizin-7a(5H)-yl)methoxy)quinazolin-7-yl)-7-fluorobenzo[d]thiazol-2-amine], the figures for the IC50 in experiment [1] and in experiment [2] were 1 nM and 33 nM, respectively. For the same molecule, the “Avg 2 h Coupled Exchange IC50” value in experiment [3] came to 1 nM.

`Nc1nc2c(-c3c(Cl)cc4c(N5C[C@H]6CC[C@@H](C5)N6)nc(OC[C@@]56CCCN5C[C@H](F)C6)nc4c3F)ccc(F)c2s1` [Example 137, 4-(4-((1R,5S)-3,8-diazabicyclo[3.2.1]octan-3-yl)-6-chloro-8-fluoro-2-(((2R,7aS)-2-fluorotetrahydro-1H-pyrrolizin-7a(5H)-yl)methoxy)quinazolin-7-yl)-7-fluorobenzo[d]thiazol-2-amine]: the IC50 in experiment [1] was determined as 3 nM; in experiment [2], 8 nM. For the same molecule, the “Avg 2 h Coupled Exchange IC50” value in experiment [3] stood at 2 nM.

`Nc1nc2c(-c3cc4nc(OC[C@@]56CCCN5C[C@H](F)C6)nc(N5[C@@H]6CC[C@H]5CNC6)c4cc3F)ccc(F)c2s1` [Example 138, 4-(4-((1R,5S)-3,8-diazabicyclo[3.2.1]octan-8-yl)-6-fluoro-2-(((2R,7aS)-2-fluorotetrahydro-1H-pyrrolizin-7a(5H)-yl)methoxy)quinazolin-7-yl)-7-fluorobenzo[d]thiazol-2-amine]: the half-maximal inhibitory concentration (IC50) in experiment [1] stood at 30 nM; in experiment [2] it was 1700 nM. Further, the “Avg 2 h Coupled Exchange IC50” value in experiment [3] stood at 11 nM.

For the molecule `CN1CCC[C@H]1COc1nc(C2=CCNCC2)c2cc(Cl)c(-c3cccc4sc(N)nc34)c(F)c2n1` [Example 144, 4-(6-chloro-8-fluoro-2-(((S)-1-methylpyrrolidin-2-yl)methoxy)-4-(1,2,3,6-tetrahydropyridin-4-yl)quinazolin-7-yl)benzo[d]thiazol-2-amine], the IC50 came out at 79 nM in experiment [1] and 2300 nM in experiment [2]. The “Avg 2 h Coupled Exchange IC50” value in experiment [3] is 37 nM.

Take `CN1CCC[C@H]1COc1nc(C2=CCNC2)c2cc(Cl)c(-c3cccc4sc(N)nc34)c(F)c2n1` [Example 148, 4-(6-chloro-4-(2,5-dihydro-1H-pyrrol-3-yl)-8-fluoro-2-(((S)-1-methylpyrrolidin-2-yl)methoxy)quinazolin-7-yl)benzo[d]thiazol-2-amine]: the IC50 in experiment [1] was 56 nM; in experiment [2], 3410 nM. Further, in experiment [3], the “Avg 2 h Coupled Exchange IC50” value came to 74 nM.

For `C=Cc1cc2c(N3CCNCC3)nc(OC[C@@H]3CCCN3C)nc2c(F)c1-c1cccc2sc(N)nc12` [Example 149, 4-(8-fluoro-2-(((S)-1-methylpyrrolidin-2-yl)methoxy)-4-(piperazin-1-yl)-6-vinylquinazolin-7-yl)benzo[d]thiazol-2-amine], the results for the IC50 in experiment [1] and in experiment [2] were 121 nM and 6930 nM, respectively. The “Avg 2 h Coupled Exchange IC50” value in experiment [3] was found to be 25 nM.

As for `C=Cc1cc2c(N3C[C@H]4CC[C@@H](C3)N4)nc(OC[C@@]34CCCN3C[C@H](F)C4)nc2c(F)c1-c1ccc(F)c2sc(N)nc12` [Example 150, 4-(4-((1R,5S)-3,8-diazabicyclo[3.2.1]octan-3-yl)-8-fluoro-2-(((2R,7aS)-2-fluorotetrahydro-1H-pyrrolizin-7a(5H)-yl)methoxy)-6-vinylquinazolin-7-yl)-7-fluorobenzo[d]thiazol-2-amine], the values for the IC50 in experiment [1] and in experiment [2] were 3 nM and 11 nM, respectively. Also, the “Avg 2 h Coupled Exchange IC50” value in experiment [3] worked out at 6 nM.

Consider `C=Cc1cc2c(N3[C@@H]4CC[C@H]3CNC4)nc(OC[C@@]34CCCN3C[C@H](F)C4)nc2c(F)c1-c1ccc(F)c2sc(N)nc12` [Example 151, 4-(4-((1R,5S)-3,8-diazabicyclo[3.2.1]octan-8-yl)-8-fluoro-2-(((2R,7aS)-2-fluorotetrahydro-1H-pyrrolizin-7a(5H)-yl)methoxy)-6-vinylquinazolin-7-yl)-7-fluorobenzo[d]thiazol-2-amine], for which the IC50 in experiment [1] was 5 nM; in experiment [2], 33 nM. Moreover, in experiment [3], the “Avg 2 h Coupled Exchange IC50” value came to 5 nM.

Take `CCc1cc2c(N3CCNCC3)nc(OC[C@@H]3CCCN3C)nc2c(F)c1-c1cccc2sc(N)nc12` [Example 152, 4-(6-Ethyl-8-fluoro-2-(((S)-1-methylpyrrolidin-2-yl)methoxy)-4-(piperazin-1-yl)quinazolin-7-yl)benzo[d]thiazol-2-amine]: the values for the IC50 in experiment [1] and in experiment [2] were 217 nM and greater than 25000 nM, respectively. Besides, the “Avg 2 h Coupled Exchange IC50” value in experiment [3] stood at 95 nM.

As to `CCc1cc2c(N3C[C@H]4CC[C@@H](C3)N4)nc(OC[C@@]34CCCN3C[C@H](F)C4)nc2c(F)c1-c1ccc(F)c2sc(N)nc12` [Example 153, 4-(4-((1R,5S)-3,8-diazabicyclo[3.2.1]octan-3-yl)-6-ethyl-8-fluoro-2-(((2R,7aS)-2-fluorotetrahydro-1H-pyrrolizin-7a(5H)-yl)methoxy)quinazolin-7-yl)-7-fluorobenzo[d]thiazol-2-amine], the IC50 in experiment [1] was found to be 4 nM; in experiment [2] it was 11 nM. Besides, the “Avg 2 h Coupled Exchange IC50” value in experiment [3] is 6 nM.

For `CCc1cc2c(N3[C@@H]4CC[C@H]3CNC4)nc(OC[C@@]34CCCN3C[C@H](F)C4)nc2c(F)c1-c1ccc(F)c2sc(N)nc12` [Example 154, 4-(4-((1R,5S)-3,8-diazabicyclo[3.2.1]octan-8-yl)-6-ethyl-8-fluoro-2-(((2R,7aS)-2-fluorotetrahydro-1H-pyrrolizin-7a(5H)-yl)methoxy)quinazolin-7-yl)-7-fluorobenzo[d]thiazol-2-amine], the IC50 in experiment [1] worked out at 4 nM; in experiment [2], 55 nM. Besides, in experiment [3], the “Avg 2 h Coupled Exchange IC50” value worked out at 4 nM.

As for `CN1CCC[C@H]1COc1nc2c(F)c(-c3cccc4sc(N)nc34)c(Cl)cc2c(N2CCNCC2)c1C#N` [Example 158, 7-(2-aminobenzo[d]thiazol-4-yl)-6-chloro-8-fluoro-2-(((S)-1-methylpyrrolidin-2-yl)methoxy)-4-(piperazin-1-yl)quinoline-3-carbonitrile], the IC50 in experiment [1] was 414 nM; in experiment [2], 3290 nM. Further, the “Avg 2 h Coupled Exchange IC50” value in experiment [3] stood at 87 nM.

Values taken from patent US20250059179A1, “Heterocyclic Compounds and Methods of Use” (AMGEN INC., priority 2021, published 2025).
